Data on 15 compounds can be found in patent US7935722B2 (Eli Lilly and Company, priority 2005, dated 2011).

As usually defined, the EC50 is the concentration that produces a half-maximal response. The term Ki denotes a measure of affinity in units of concentration, obtained from inhibition or displacement.

Experiment [1] deals with T1, human androgen receptor (AR) (Homo sapiens, UniProt P10275).
T1 construct: expressed in transfected cells; host or cells: mouse myoblast C2C12 cells, transiently co-transfected
T1 sequence (P10275 1-920): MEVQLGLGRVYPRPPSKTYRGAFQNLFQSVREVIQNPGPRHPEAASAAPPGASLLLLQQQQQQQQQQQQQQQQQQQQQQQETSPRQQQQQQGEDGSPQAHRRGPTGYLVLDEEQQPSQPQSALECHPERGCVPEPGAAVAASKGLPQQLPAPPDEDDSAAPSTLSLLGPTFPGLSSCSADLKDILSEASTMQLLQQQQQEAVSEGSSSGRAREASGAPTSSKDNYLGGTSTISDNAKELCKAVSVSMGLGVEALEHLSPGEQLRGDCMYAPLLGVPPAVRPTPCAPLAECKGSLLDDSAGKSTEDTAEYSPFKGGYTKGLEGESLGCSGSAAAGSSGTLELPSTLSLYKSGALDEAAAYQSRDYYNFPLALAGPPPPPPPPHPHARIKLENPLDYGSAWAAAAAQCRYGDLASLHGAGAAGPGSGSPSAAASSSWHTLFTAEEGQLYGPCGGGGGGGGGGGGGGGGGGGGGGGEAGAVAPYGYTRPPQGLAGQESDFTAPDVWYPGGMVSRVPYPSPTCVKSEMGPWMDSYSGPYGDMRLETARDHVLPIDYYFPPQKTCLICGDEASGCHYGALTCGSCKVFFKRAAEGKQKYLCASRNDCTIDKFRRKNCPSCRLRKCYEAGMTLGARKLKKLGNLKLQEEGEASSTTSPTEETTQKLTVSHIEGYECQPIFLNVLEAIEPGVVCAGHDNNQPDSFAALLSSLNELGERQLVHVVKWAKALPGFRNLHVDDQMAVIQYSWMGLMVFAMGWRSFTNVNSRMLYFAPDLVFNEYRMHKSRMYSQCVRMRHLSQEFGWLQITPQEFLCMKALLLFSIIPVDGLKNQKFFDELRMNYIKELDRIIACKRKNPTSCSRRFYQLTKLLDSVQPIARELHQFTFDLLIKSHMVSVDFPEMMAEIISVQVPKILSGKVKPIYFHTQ
The experiment can be described thus: C2C12 AR/ARE reporter assay. The class given is cell-based. How it is done: As an indicator of agonist activity in muscle tissue, the C2C12 AR/ARE reporter assay is performed. Briefly, mouse myoblast C2C12 cells are co-transfected using FuGENE™. […] Cells are transfected in T150 cm^2 flasks in DMEM media with 4% or 10% Fetal Bovine Serum […]. After a 5 hour incubation, transfected cells are trypsinized, plated in 96 well dishes in DMEM media containing 10% charcoal-stripped FBS, incubated for 2 h and then exposed to various concentrations of test compounds ranging from about 0.01 nM to 10 μM. After 48 h of incubations with compounds, cells are lysed and luciferase activity is determined using standard techniques. Data is fit to a 4 parameter-fit logistics to determine EC50 values. The % efficacy is determined versus maximum stimulation obtained with 10 nM methyltrienolone. […]

Experiment [2] concerns the target T2, human AR (androgen receptor) (Homo sapiens, UniProt P10275).
T2 construct: expressed in transfected cells; host or cells: 293 cells (293-AR lysate)
T2 sequence (P10275 1-920): T1 sequence (P10275 1-920)
The experiment can be described thus: Steroid hormone nuclear receptor binding assay, AR binding. On the procedure: Cell lysates from 293 cells overexpressing human GR (glucocorticoid receptor), AR (androgen receptor), MR (mineralocorticoid receptor) or PR (progesterone receptor) are used for competition binding assays to determine Ki values for test compounds. […] Competing compounds are added at various concentrations ranging from about 0.01 nM to 10 μM. Non-specific binding is determined in the presence of 500 nM dexamethasone for GR binding, 500 nM aldosterone for MR binding, or 500 nM methyltrienolone for AR and PR binding. The binding reaction (140 μl) is incubated for overnight at 4° C., then 70 μl of cold charcoal-dextran buffer (containing per 50 ml of assay buffer, 0.75 g of charcoal and 0.25 g of dextran) is added to each reaction. Plates are mixed 8 minutes on an orbital shaker at 4° C. Plates are then centrifuged at 3,000 rpm at 4° C. for 10 minutes. An aliquot of 120 μl of the mix is transferred to another 96-well plate and 175 μl of Wallac Optiphase “Hisafe 3” scintillation fluid is added to each well. Plates are sealed and shaken vigorously on an orbital shaker. After an incubation of 2 hrs, plates are read in a Wallac Microbeta counter. […] The Kd for ^3H-dexamethasone for GR binding, ^3H-methyltrienolone for AR binding, ^3H-aldosterone for MR binding, or ^3H-methyltrienolone for PR binding, is determined by saturation binding. The IC50 values for test compounds are converted to Ki using Cheng-Prusoff equation and the Kd determined by saturation binding assay. […]

[3] abbreviates: C2C12, read-out: C2C12 % Efficacy.
The mark [4] stands for this setting: C2C12 AR/ARE reporter assay, average of n trials, read-out: C2C12 % Efficacy.
[5] abbreviates: C2C12 AR/ARE reporter assay, average of n trials, read-out: C2C12 EC50.
[6] abbreviates: average of n trials, read-out: AR binding Ki.

Molecules are shown by their SMILES. Read-outs that look alike come from different tables or passages of the source.

In experiment [1], `CC(C)C(=O)N[C@@H]1CCc2c(c3cc(C#N)ccc3n2Cc2ccccc2N)C1` (single isomer, unassigned) [Example 110, R-N-[9-(2-Amino-benzyl)-6-cyano-2,3,4,9-tetrahydro-1H-carbazol-3-yl]-isobutyramide] came in with an EC50 of 0.0018 µM. Further, the Emax in experiment [1] (setting [3]) worked out at 110%. This compound displayed an inhibition constant Ki in experiment [2] of 0.0048 µM.

For the compound `CC(C)C(=O)N[C@H]1CCc2c(c3cc(C#N)ccc3n2Cc2ccccc2N)C1` (single isomer, unassigned) [Example 111, S-N-[9-(2-Amino-benzyl)-6-cyano-2,3,4,9-tetrahydro-1H-carbazol-3-yl]-isobutyramide], the EC50 in experiment [1] is 0.0552 µM. Besides, the Emax in experiment [1] (setting [3]) stood at 111%. Moreover, affinity in experiment [2] was put at a Ki of 0.127 µM.

As for `COc1cccc(Cn2c3c(c4cc(F)ccc42)CC(NC(=O)C(C)C)CC3)c1` (stereo not drawn) [Example 10], in experiment [1] (setting [3]), the Emax stood at 40.4%.

With `CC(C)C(=O)NC1CCc2c(c3cc(Br)ccc3n2Cc2cccc(F)c2)C1` (stereo not drawn) [Example 35, N-[6-bromo-9-(3-fluoro-benzyl)-2,3,4,9-tetrahydro-1H-carbazol-3-yl]-isobutyramide], in experiment [1], it took 0.0023 µM to reach a half-maximal effect (EC50). In addition, in experiment [1] (setting [3]), the Emax is 74.1%. Moreover, the affinity in experiment [2], expressed as Ki, was 0.0026 µM.

For the compound `CC(C)C(=O)NC1CCc2c(c3cc([N+](=O)[O-])ccc3n2Cc2cccc(F)c2)C1` (stereo not drawn) [Example 61, N-[9-(3-Fluorobenzyl)-6-nitro-2,3,4,9-tetrahydro-1H-carbazol-3-yl]isobutyramide], in experiment [1], the concentration giving a half-maximal response (EC50) was 0.0036 µM. Besides, in experiment [1] (setting [3]), the Emax was 83.2%. Moreover, the Ki in experiment [2] was 0.0023 µM.

In turn, `CC(C)C(=O)NC1CCc2c(c3cc(N(C)C)ccc3n2Cc2cccc(F)c2)C1` (stereo not drawn) [Example 62, N-[6-Dimethylamino-9-(3-fluoro-benzyl)-2,3,4,9-tetrahydro-1H-carbazol-3-yl]-isobutyramide] registered an EC50 in experiment [1] of 0.369 µM. Further, the Emax in experiment [1] (setting [3]) was determined as 56.1%. The compound further had an inhibitory constant (Ki) in experiment [2] of 0.11 µM.

In the case of `CC(C)C(=O)NC1CCc2c(c3cc(C(N)=S)ccc3n2Cc2cccc(F)c2)C1` (stereo not drawn) [Example 64, N-(9-(3-Fluorobenzyl)-6-thiocarbamoyl-2,3,4,9-tetrahydro-1H-carbazol-3-yl)isobutyramide], the Emax in experiment [1] (setting [4]) was determined as 89.3%. In addition, the EC50 in experiment [1] (setting [5]) was determined as 0.0093 µM. Besides, the Ki in experiment [2] (setting [6]) amounted to 0.0145 µM.

In the case of `CCC(=O)NC1CCc2c(c3cc(OC)ccc3n2Cc2ccccc2)C1` (stereo not drawn) [Example 66, N-(9-Benzyl-6-methoxy-2,3,4,9-tetrahydro-1H-carbazol-3-yl)-propionamide], the Emax in experiment [1] (setting [4]) was 79.8%. Further, in experiment [1] (setting [5]), the EC50 amounted to 0.0192 µM. Also, the Ki in experiment [2] (setting [6]) was determined as 0.0069 µM.

In experiment [1], `COc1ccc2c(c1)c1c(n2Cc2ccccc2)CCC(NC(=O)C(C)C)C1` (stereo not drawn) [Example 67, N-(9-Benzyl-6-methoxy-2,3,4,9-tetrahydro-1H-carbazol-3-yl)-isobutyramide] gave an EC50 of 0.0186 µM. Besides, the Emax in experiment [1] (setting [3]) is 96.9%. In experiment [2], the affinity corresponds to a Ki of 0.0062 µM.

In experiment [1], `COc1ccc2c(c1)c1c(n2Cc2ccccc2)CCC(NC(=O)C2CC2)C1` (stereo not drawn) [Example 68, Cyclopropanecarboxylic acid (9-benzyl-6-methoxy-2,3,4,9-tetrahydro-1H-carbazol-3-yl)-amide] had an EC50 of 0.0408 µM. Besides, in experiment [1] (setting [3]), the Emax worked out at 98%. Further, the Ki in experiment [2] worked out at 0.0462 µM.

As for `COc1ccc2c(c1)c1c(n2Cc2ccccc2OC)CCC(NC(=O)C(C)C)C1` (stereo not drawn) [Example 72], the Emax in experiment [1] (setting [3]) worked out at 66.4%.

In the case of `COc1ccc(Cn2c3c(c4cc(OC)ccc42)CC(NC(=O)C(C)C)CC3)cc1` (stereo not drawn) [Example 74], in experiment [1] (setting [3]), the Emax came to 22.6%.

Take `COc1ccc2c(c1)c1c(n2Cc2ccc(F)cc2)CCC(NC(=O)C(C)C)C1` (stereo not drawn) [Example 80]: in experiment [1] (setting [3]), the Emax was 59.9%.

Consider `COC(=O)c1cccc(Cn2c3c(c4cc(Cl)ccc42)CC(NC(=O)C(C)C)CC3)c1` (stereo not drawn) [Example 84], for which, in experiment [1] (setting [3]), the Emax was found to be 32.9%.

Turning to `CC(C)C(=O)NC1CCc2c(c3cc(C#N)ccc3n2Cc2cccc([N+](=O)[O-])c2)C1` (stereo not drawn) [Example 88, N-[6-cyano-9-(3-nitro-benzyl)2,3,4,9-tetrahydro-1H-carbazol-3-yl]-isobutyramide], in experiment [1] (setting [3]), the Emax is 96.1%.
